{"source": "ChEMBL document CHEMBL5727000", "about": "“Carboxamide or sulfonamide substituted thiazoles and related derivatives as modulators for the orphan nuclear receptor ROR[γ]” (2019)", "key": {"[1]": {"test": "(§1) RORgamma Gal4 Reporter Gene Assay (FF): Cells were incubated for additional 16 h before firefly (FF) luciferase activities were measured sequentially in the same cell extract using a Dual-Light-Luciferase-Assay system (Dyer et al., Anal. Biochem. 2000, 282:158). All experiments were done at least in triplicates."}, "[2]": {"test": "as §1, with “(REN):” for “(FF):”, “renilla (REN)” for “firefly (FF)”"}}}
{"molecule": "CCOC(=O)c1nc(Cc2ccccc2)c(-c2ccc(S(=O)(=O)NC(C)(C)C)c3ccccc23)s1", "values": [{"measurement": "IC50", "setting": "[1]", "value": 12.6, "unit": "nM"}, {"measurement": "IC50", "setting": "[2]", "value": 10, "unit": "nM"}]}
{"molecule": "O=CO[C@H]1C[C@H](NC(=O)c2nc(CC3CCCCC3)c(-c3ccc(OCC(F)(F)F)c4ccccc34)s2)C1", "values": [{"measurement": "IC50", "setting": "[1]", "value": 316, "unit": "nM"}, {"measurement": "IC50", "setting": "[2]", "value": 631, "unit": "nM"}]}
{"molecule": "CC(=O)NS(=O)(=O)c1nc(-c2cc(C(C)(C)C)cc(C(C)(C)C)c2)c(CC2CCCCC2)s1", "values": [{"measurement": "IC50", "setting": "[1]", "value": "< 20000", "unit": "nM"}, {"measurement": "IC50", "setting": "[2]", "value": "< 20000", "unit": "nM"}]}
{"molecule": "O=CO[C@H]1C[C@H](NC(=O)c2nc(CC3CCCCC3)c(-c3ccc(OC(F)(F)F)c4ccccc34)s2)C1", "values": [{"measurement": "IC50", "setting": "[1]", "value": 126, "unit": "nM"}, {"measurement": "IC50", "setting": "[2]", "value": 126, "unit": "nM"}]}
{"molecule": "CC(C)(C)NS(=O)(=O)c1ccc(-c2oc(C(=O)NC3CCOCC3)nc2CC2CCCCC2)c2ccccc12", "values": [{"measurement": "IC50", "setting": "[1]", "value": 15.8, "unit": "nM"}, {"measurement": "IC50", "setting": "[2]", "value": 12.6, "unit": "nM"}]}
{"molecule": "CC(C)(C)NS(=O)(=O)c1ccc(-c2sc(C(=O)NC3CCC3)[n+]([O-])c2CC2CCCCC2)c2ccccc12", "values": [{"measurement": "IC50", "setting": "[1]", "value": 31.6, "unit": "nM"}, {"measurement": "IC50", "setting": "[2]", "value": 31.6, "unit": "nM"}]}
{"molecule": "O=C(NC1CCS(=O)(=O)CC1)c1nc(CC2CCCCC2)c(-c2ccc(C3(O)CCC3)c3ccccc23)s1", "values": [{"measurement": "IC50", "setting": "[1]", "value": 501, "unit": "nM"}, {"measurement": "IC50", "setting": "[2]", "value": 631, "unit": "nM"}]}
{"molecule": "C[C@H](NS(=O)(=O)c1ccc(-c2sc(C(=O)N3CC4(C3)CS(=O)(=O)C4)nc2CC2CC2)c2ccccc12)C(F)(F)F", "values": [{"measurement": "IC50", "setting": "[1]", "value": 6.31, "unit": "nM"}, {"measurement": "IC50", "setting": "[2]", "value": 6.31, "unit": "nM"}]}
{"molecule": "COc1ccc(-c2sc(C(=O)N[C@H]3C[C@H](OC=O)C3)nc2CC2CCCCC2)c2ccccc12", "values": [{"measurement": "IC50", "setting": "[1]", "value": 251, "unit": "nM"}, {"measurement": "IC50", "setting": "[2]", "value": 251, "unit": "nM"}]}
{"molecule": "CC(C)(C)NS(=O)(=O)c1ccc(-c2oc(C(=O)N3CC4(CCS(=O)(=O)CC4)C3)nc2CC2CCCCC2)c2ccccc12", "values": [{"measurement": "IC50", "setting": "[1]", "value": 1260, "unit": "nM"}]}
{"molecule": "CC(C)(O)CNC(=O)c1nc(CC2CCCCC2)c(-c2ccc(S(N)(=O)=O)c(Cl)c2Cl)s1", "values": [{"measurement": "IC50", "setting": "[1]", "value": "< 20000", "unit": "nM"}, {"measurement": "IC50", "setting": "[2]", "value": "< 20000", "unit": "nM"}]}
{"molecule": "CC(C)(C)c1cc(-c2nc(C(=O)N[C@H]3C[C@H](OC=O)C3)oc2CC2CCCCC2)cc(C2(C)CC2)c1", "values": [{"measurement": "IC50", "setting": "[1]", "value": 398, "unit": "nM"}, {"measurement": "IC50", "setting": "[2]", "value": 251, "unit": "nM"}]}
{"molecule": "CC(C)(O)CN1CCN(C(=O)c2nc(CC3CCCCC3)c(-c3ccc(S(=O)(=O)NC(C)(C)C)c4ccccc34)s2)CC1", "values": [{"measurement": "IC50", "setting": "[1]", "value": 158, "unit": "nM"}, {"measurement": "IC50", "setting": "[2]", "value": 126, "unit": "nM"}]}
{"molecule": "CC(C)(C)c1cc(-c2sc(C(=O)NC3CC(OC=O)C3)nc2CC2CCCCC2)nc(C(C)(C)C)n1", "note": "(centres undefined)", "values": [{"measurement": "IC50", "setting": "[1]", "value": 126, "unit": "nM"}, {"measurement": "IC50", "setting": "[2]", "value": 126, "unit": "nM"}]}
{"molecule": "CC(C)(C)NS(=O)(=O)c1ccc(-c2sc(C(=O)NC3CCOCC3)nc2CC2CCCCC2)cc1C(F)(F)F", "values": [{"measurement": "IC50", "setting": "[1]", "value": 10, "unit": "nM"}, {"measurement": "IC50", "setting": "[2]", "value": 5.01, "unit": "nM"}]}
{"molecule": "CC(C)(O)CNC(=O)c1nc(CC2CCCCC2)c(-c2ccc(S(=O)(=O)NC(C)(C)C)c(Cl)c2Cl)o1", "values": [{"measurement": "IC50", "setting": "[1]", "value": 39.8, "unit": "nM"}, {"measurement": "IC50", "setting": "[2]", "value": 31.6, "unit": "nM"}]}
{"molecule": "CC(C)(C)NS(=O)(=O)c1ccc(-c2sc(C(=O)NC3CCC3)nc2CC2CCCCC2)c(OC(F)(F)F)c1", "values": [{"measurement": "IC50", "setting": "[1]", "value": 10, "unit": "nM"}, {"measurement": "IC50", "setting": "[2]", "value": 6.31, "unit": "nM"}]}
{"molecule": "CC(C)(C)c1cc(-c2sc(C(=O)NC3CCC3)[n+]([O-])c2CC2CCCCC2)cc(C2(C)CC2)c1", "values": [{"measurement": "IC50", "setting": "[1]", "value": 31.6, "unit": "nM"}, {"measurement": "IC50", "setting": "[2]", "value": 25.1, "unit": "nM"}]}
{"molecule": "C[C@H](NC(=O)c1cc(-c2sc(C(=O)NCC(C)(C)c3noc(=O)[nH]3)nc2CC2CCCCC2)cc(C2(C)CC2)c1)C(F)(F)F", "values": [{"measurement": "IC50", "setting": "[1]", "value": 5.01, "unit": "nM"}, {"measurement": "IC50", "setting": "[2]", "value": 5.01, "unit": "nM"}]}
{"molecule": "CC(C)(C)NS(=O)(=O)c1ccc(-c2sc(C(=O)NC3CCOCC3)nc2CC2CCCCC2)cc1C(C)(C)C", "values": [{"measurement": "IC50", "setting": "[1]", "value": 15.8, "unit": "nM"}, {"measurement": "IC50", "setting": "[2]", "value": 12.6, "unit": "nM"}]}
{"molecule": "CC(C)(C)NS(=O)(=O)c1cnc(-c2sc(C(=O)N[C@H]3C[C@H](C(=O)O)C3)nc2CC2CCCCC2)nc1C(C)(C)C", "values": [{"measurement": "IC50", "setting": "[1]", "value": 200, "unit": "nM"}, {"measurement": "IC50", "setting": "[2]", "value": 398, "unit": "nM"}]}
{"molecule": "CC(C)(C)NS(=O)(=O)c1ccc(-c2oc(C(=O)NC3CCS(=O)(=O)CC3)nc2CC2CCCCC2)c(Cl)c1Cl", "values": [{"measurement": "IC50", "setting": "[1]", "value": 3.98, "unit": "nM"}, {"measurement": "IC50", "setting": "[2]", "value": 6.31, "unit": "nM"}]}
{"molecule": "CC(C)(C)NS(=O)(=O)c1ccc(-c2sc(C(=O)N[C@H]3C[C@H](C(=O)O)C3)nc2Cc2ccccc2)c2ccccc12", "values": [{"measurement": "IC50", "setting": "[1]", "value": 26.5, "unit": "nM"}]}
{"molecule": "CC(C)(O)CNC(=O)c1nc(C(=O)C2CCC(C)(C)CC2)c(-c2ccc(S(=O)(=O)NC(C)(C)C)c3ccccc23)s1", "values": [{"measurement": "IC50", "setting": "[1]", "value": 25.1, "unit": "nM"}, {"measurement": "IC50", "setting": "[2]", "value": 31.6, "unit": "nM"}]}
{"molecule": "CC(C)(O)CNC(=O)c1nc(CC2CCC2)c(-c2ccc(S(=O)(=O)NC(C)(C)C)c(Cl)c2OC(F)F)s1", "values": [{"measurement": "IC50", "setting": "[1]", "value": 31.6, "unit": "nM"}, {"measurement": "IC50", "setting": "[2]", "value": 39.8, "unit": "nM"}]}
{"molecule": "CC(C)(C)c1cc(-c2sc(C(=O)NC3CC(OC=O)C3)nc2CC2CCCCC2)nc(C2(C)CC2)n1", "note": "(centres undefined)", "values": [{"measurement": "IC50", "setting": "[1]", "value": 158, "unit": "nM"}, {"measurement": "IC50", "setting": "[2]", "value": 200, "unit": "nM"}]}
{"molecule": "CC1CCN(C(=O)c2nc(C(=O)N3CC4(CCS(=O)(=O)CC4)C3)oc2-c2ccc(S(=O)(=O)NC(C)(C)C)c3ccccc23)CC1", "values": [{"measurement": "IC50", "setting": "[2]", "value": 2510, "unit": "nM"}]}
{"molecule": "CC(C)(C)NS(=O)(=O)c1ccc(-c2sc(C(=O)NCC3(C(=O)O)CCOCC3)nc2CC2CCCCC2)c(Cl)c1Cl", "values": [{"measurement": "IC50", "setting": "[2]", "value": 39.8, "unit": "nM"}]}
{"molecule": "CC(C)(C)c1cc(-c2nc(C(N)=O)oc2CC2CCCCC2)cc(C(C)(C)C)c1", "values": [{"measurement": "IC50", "setting": "[1]", "value": "< 20000", "unit": "nM"}, {"measurement": "IC50", "setting": "[2]", "value": "< 20000", "unit": "nM"}]}
{"molecule": "CC(C)(C)c1cc(-c2sc(S(=O)(=O)NC(=O)OCc3ccccc3)nc2CC2CCCCC2)cc(C2(C)CC2)c1", "values": [{"measurement": "IC50", "setting": "[1]", "value": "< 20000", "unit": "nM"}, {"measurement": "IC50", "setting": "[2]", "value": "< 20000", "unit": "nM"}]}
{"molecule": "C[C@H](NS(=O)(=O)c1ccc(-c2sc(C(=O)NCC(C)(C)O)nc2CC2CCC2)c(C(F)(F)F)c1)C(F)(F)F", "values": [{"measurement": "IC50", "setting": "[2]", "value": 20, "unit": "nM"}]}
{"molecule": "CC(C)(C)NS(=O)(=O)c1ccc(-c2sc(C(=O)NC3CCC3)nc2CC2CCCCC2)c(OC(F)F)c1Cl", "values": [{"measurement": "IC50", "setting": "[1]", "value": 10, "unit": "nM"}, {"measurement": "IC50", "setting": "[2]", "value": 5.01, "unit": "nM"}]}
